Results reported in patent US20250282720A1, “ALKYLSULFENYL THIOCARBONATES: PRECURSORS TO HYDROPERSULFIDES POTENTLY ATTENUATE OXIDATIVE STRESS” (The Johns Hopkins University, priority 2021, published 2025).
Entries after “also recorded” stand apart in the source; their conditions may differ.

Key:
[1] = system: ferritin heavy chain 1 (FTH1); assay: FTH1 protein expression, immunoblot; type: cell-based, human; conditions: 25 and 50 μM for 4 h, erastin 24 h
Description: (§1) FIG. 14A, FIG. 14B, FIG. 14C, and FIG. 14D show: FIG. 14A and FIG. 14B pretreatment of AST (25 and 50 μM) for 4 h followed by 24 h treatment with erastin ([…]) immunoblots for indicated proteins of lysates derived from FA fibroblasts. FIG. 14C and FIG. 14D, relative abundance of TFR1 and FTH1 proteins normalized to β-actin loading control. Results are the means+SEM of n=3 for all concentrations. *P<0.05, **P<0.005, comparisons with the erastin group. Group comparisons are determined by a one-way analysis of variance (ANOVA) with Dunnet's correction post-hoc test using GraphPad Prism 8. Samples were run on the same gel for SDS-Page gel electrophoresis in nonconsecutive lanes;
(§2) To test this hypothesis, we studied the effect of RSSH on TFR1 and FTH1 expression levels. We anticipated that the impacts of RSSH would result in downregulation of TFR1 and upregulation of FTH1. […] Feng et al., 2020; Park and Chung, 2019.

[2] = pH 7.4 solution at 37° C.; cited from earlier work
[3] = system: transferrin receptor 1 (TFR1); assay: TFR1 protein expression, immunoblot; type: cell-based, human; conditions: 25 and 50 μM for 4 h, erastin 24 h
Description: as §1, §2

[4] = system: H9c2 cardiac myoblasts; assay: H9c2 cell protection from H2O2-mediated oxidative stress, Sytox Green nucleic acid stain; type: cell-based, rat; conditions: Sytox viability assay, H2O2 200 μM
Description: Jones and Singer, 2001. […] Tominaga et al., 1999.
Cells were incubated for 2 h before media was removed and the cells gently washed with PBS (pH 7.4). Then, 180 μL of fresh media and 20 μL H2O2 diluted in H2O were added before cells were incubated for an additional 1 h.

[5] = system: FA fibroblasts; assay: Protection against erastin-induced ferroptosis in FA fibroblasts; type: cell-based, human; conditions: 25 μM and 50 μM, 4 h pretreatment, erastin 24 h
Description: FIG. 10A, pretreatment of AST with varying concentrations in FA fibroblasts (GM04078, Coriell Institute) for 4 h followed by 4 h treatment with H2O2. Viability was measured using CCK8 assay. FIG. 10B, pretreatment of AST with varying concentrations in FA fibroblasts for 4 h followed by treatment with erastin for 24 h. Results are expressed as SEM with n≥3 for all concentrations. **P<0.005, for comparisons with the erastin group. Group comparisons are determined by a one-way analysis of variance (ANOVA) with Dunnet's correction post-hoc test using GraphPad Prism 8;
We next sought to determine whether AST would protect FA fibroblasts against erastin-induced cell death. Erastin is an inducer of ferroptosis, an iron-dependent form of cell death. It acts as an inhibitor of the cystine glutamate antiporter (system Xc), inhibiting the import of cystine, which leads to downstream depletion of glutathione (GSH) and ultimately to elevated ROS production.

[6] = system: aconitase; assay: Aconitase protein expression, immunoblot; type: cell-based, human
Description: Mitochondrial aconitase levels are unaffected by treatment of AST and H2O2. Immunoblot analysis was conducted utilizing enriched-mitochondrial pellets. Results are expressed as SEM with n≥3 for all concentrations;
Given these encouraging results, it was critical to determine whether the RSSH's positive impact on aconitase activity was due to enhanced Fe—S cluster biosynthesis or increased aconitase expression.

[7] = Decomposition of precursors in the presence of thiol (NAC / N-acetyl cysteine methyl ester), HPLC; type: physicochemical; conditions: 5 equiv NAC, PBS pH 7.4, HPLC
Description: Initially, the decomposition of 1a was analyzed in the presence of 5 equiv of N-acetylcysteine (NAC) in PBS (pH 7.4) by HPLC. […] To investigate the mechanism, this reaction was monitored by UPLC-MS. […] Additionally, a small amount of unsymmetrical dialkyl polysulfide (pink highlight, R^1SSnSR^2, n=0-3) is observed, likely formed via NAC reaction with symmetrical dialkyl polysulfides (Scheme 1-5, eq. 7). As expected, a new peak at 5.65 min corresponding to N-acetyl cysteine-thiocarbonate 9a also is observed, confirming thiol attack at the perthiocarbonate carbonyl carbon of 1a to release RSSH. Due to the unstable nature of RSSH under these experimental conditions, the yield of the by-product 9a was measured as an indication of RSSH yield. The observation of RSSH-derived polysulfides formation as major products led us to anticipate the efficient formation of by-product 9a. […] The lower observed yield of 9a is likely due to its further reaction with RSSH under these conditions. […]
To a solution of N-acetyl cysteine methyl ester (500 μM) in pH 7.4 phosphate buffer saline (100 mM) containing DTPA (100 μM), precursor 1a or 8 (100 μM) was added. […] At different time points, an aliquot of the reaction mixture (500 μL) was withdrawn and transferred to pre-cooled 0.1% formic acid (500 μL) and analyzed using HPLC. […]

[8] = system: aconitase; assay: Aconitase activity in enriched-mitochondrial pellets of FA fibroblasts; type: cell-based, human; parameters: aconitase activity after erastin: dose or concentration left out as unconfirmed
Description: Aconitase activity was measured as a result of formation of NADH and normalized to citrate synthase activity. FIG. 12B, pretreatment of AST with varying concentrations in FA fibroblasts for 4 h followed by 24 h treatment with erastin ([…]). Assays were conducted on enriched-mitochondrial pellets. Results are the means±SEM of n≥3 for all concentrations. *P<0.05, **P<0.005, ***P<0.0005, ****P<0.0001 for comparisons with the […]. Group comparisons are determined by a one-way analysis of variance (ANOVA) with Dunnet's correction post-hoc test using GraphPad Prism 8;
FXN deficiency results in diminished activity of various mitochondrial proteins that contain Fe—S cluster cofactors. For example, aconitase activity is affected in FA fibroblasts. Rötig et al., 1997. Aconitase catalyzes the stereospecific isomerization of citrate to isocitrate in the tricarboxylic acid cycle and its activity is highly dependent on an intact [4Fe-4S]^2+ cluster. We examined the impact of RSSH in FA fibroblasts on aconitase activity, the increase of which is reflective of preserved or augmented Fe—S cluster biosynthesis. […] To corroborate further that AST can effectively preserve or enhance Fe—S cluster assembly under challenging biological conditions, we conducted analogous experiments replacing H2O2 with erastin.

In the case of `COC(=O)C(NC(C)=O)C(C)(C)SSC(=O)Oc1ccccc1` (stereo not shown) [Precursor 1a, Methyl 2-acetamido-3-methyl-3-((phenoxycarbonyl)disulfaneyl)butanoate], the FTH1 protein level [1] is given as “two-fold increase”, the half-life [2] is given as 2.15 h and the TFR1 protein level [3] is given as “three-fold decrease”. For the same compound, the “cytoprotection against H2O2-mediated toxicity” value [4] was “consistently shows protective effects”, the “protection against erastin-induced ferroptosis” value [5] was “nearly complete protection” and the aconitase protein expression ([6]; 25 μM, 12 h pretreatment, 12 h H2O2, listed as AST) was “does not alter aconitase protein expression; also recorded: unaffected”. The aconitase expression levels ([6]; in combination with erastin) was “no significant impact”, the “t1/2 of decomposition in the presence of thiol” value [7] was 38.4 ± 6.6 s and the “aconitase activity after H2O2” value ([8]; 4 h pretreatment at 10, 25, 50 μM, 75 mM H2O2) was “rescues aconitase activity to levels found in control”. The “aconitase activity after erastin” value ([8]; pretreatment) was “attenuated this adverse effect”.
